Results: US6723753B2, “Substituted n-benzyl-n-phenyl aminoalcohol compounds useful for inhibiting cholesteryl ester transfer protein activity” (Pharmacia Corporation, priority 2002, dated 2004)
pIC50: −log10 of the molar value. Where two headings read alike, the source gives them in different places.

Biological target: T1, CETP (Homo sapiens, UniProt P11597)
T1 sequence (P11597 18-493): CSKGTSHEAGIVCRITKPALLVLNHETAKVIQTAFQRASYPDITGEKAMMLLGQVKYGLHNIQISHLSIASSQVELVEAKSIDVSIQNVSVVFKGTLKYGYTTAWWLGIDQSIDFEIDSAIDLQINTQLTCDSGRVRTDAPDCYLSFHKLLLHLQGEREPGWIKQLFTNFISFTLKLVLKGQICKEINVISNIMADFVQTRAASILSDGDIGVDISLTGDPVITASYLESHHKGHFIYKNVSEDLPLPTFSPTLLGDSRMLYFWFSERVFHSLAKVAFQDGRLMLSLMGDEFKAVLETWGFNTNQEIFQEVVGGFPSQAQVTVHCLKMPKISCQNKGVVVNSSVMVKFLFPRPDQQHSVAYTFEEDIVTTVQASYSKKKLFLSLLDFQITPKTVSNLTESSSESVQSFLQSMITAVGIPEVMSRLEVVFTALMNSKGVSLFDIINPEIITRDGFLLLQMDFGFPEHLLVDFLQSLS
Test: Assay of CETP Inhibition using Purified Components (Reconstituted Buffer Assay)
Assay type: biochemical
Design: made in house; host or cells: CHO cells (serum-free conditioned medium)
Settings: transfer of [3H]CE from HDL to LDL
Procedure: Assay of CETP Inhibition using Purified Components (Reconstituted Buffer Assay)
The ability of compounds to inhibit CETP activity was assessed using an in vitro assay that measured the rate of transfer of radiolabeled cholesteryl ester ([^3H]CE) from HDL donor particles to LDL acceptor particles. Details of the assay are provided by Glenn, K. C. et al. (Glenn and Melton, “Quantification of Cholesteryl Ester Transfer Protein (CETP): A) CETP Activity and B) Immunochemical Assay of CETP Protein,” Meth. Enzymol., 263, 339-351 (1996)). Human recombinant CETP can be obtained from the serum-free conditioned medium of CHO cells transfected with a cDNA for CETP and purified as described by Wang, S. et al. (J. Biol. Chem. 267, 17487-17490 (1992)). To measure CETP activity, [^3H]CE-labeled-HDL, LDL, CETP and assay buffer (50 mM tris(hydroxymethyl)aminomethane, pH 7.4; 150 mM sodium chloride; 2 mM ethylenediamine-tetraacetic acid (EDTA); 1% bovine serum albumin) were incubated in a final volume of 200 μL, for 2 hours at 37° C. in 96 well plates. […] The inhibitors were then diluted 1:1 with CETP in assay buffer, and then 25 μL of that solution was mixed with 175 μL of lipoprotein pool for assay. Following incubation, LDL was differentially precipitated by the addition of 50 μL of 1% (w/v) dextran sulfate/0.5 M magnesium chloride, mixed by vortex, and incubated at room temperature for 10 minutes. A potion of the solution (200 μL) was transferred to a filter plate (Millipore). After filtration, the radioactivity present in the precipitated LDL was measured by liquid scintillation counting.
This value was defined as the IC50.
Examples of IC50 values determined by these methods are specified in Table 9.

[1] = Inhibition of CETP activity in reconstituted buffer assay, read-out: IC50
[2] = IC50, Inhibition of CETP activity in reconstituted buffer assay

Compound	pIC50 [1]	pIC50 [2]
OC(CN(Cc1cccc(OC(F)(F)C(F)F)c1)c1cccc(S)c1)C(F)(F)F (stereo not shown) [473B]	4.38	
OC(CN(Cc1cccc(OC(F)(F)C(F)F)c1)c1cccc(CBr)c1)C(F)(F)F (stereo not shown) [514D]	4.82	
O=[N+]([O-])c1cccc(N(Cc2cccc(OC(F)(F)C(F)F)c2)CC(O)C(F)(F)F)c1 (stereo not shown) [528B]	4.96	
OC(CNc1cccc(Oc2ccccc2)c1)C(F)(F)F (stereo not shown) [588B]	< 4.00	
CON(C)C(=O)c1cccc(CN(CC(O)C(F)(F)F)c2cccc(Oc3ccccc3)c2)c1 (stereo not shown) [620A]	4.61	
OC(CNCc1cccc(OC(F)(F)F)c1)C(F)(F)F (stereo not shown) [632A]	< 4.30	
OC(CN(Cc1cccc(C(F)(F)F)c1)c1cccc(F)c1)C(F)(F)F (stereo not shown) [Example 1, 3-[(3-fluorophenyl)[[3-(3-trifluoromethyl)phenyl]methyl]amino]-1,1,1-tri-fluoro-2-propanol]	4.42	
COc1cccc(N(Cc2ccc(C)cc2)CC(O)C(F)(F)F)c1 (stereo not shown) [Example 4]	4.22	
Cc1ccc(N(Cc2cccc(C)c2)CC(O)C(F)(F)F)cc1 (stereo not shown) [Example 5]	< 4.00	
COc1ccc(N(Cc2ccc(C)cc2)CC(O)C(F)(F)F)cc1 (stereo not shown) [Example 6]	< 4.00	
OC(CN(Cc1ccccc1)c1ccc(Cl)cc1)C(F)(F)F (stereo not shown) [Example 7]	< 4.00	
Cc1ccc(CN(CC(O)C(F)(F)F)c2ccc(C)cc2)cc1 (stereo not shown) [Example 8]	< 4.00	
Cc1cccc(CN(CC(O)C(F)(F)F)c2cccc(Cl)c2)c1 (stereo not shown) [Example 9]	< 4.00	
Cc1cccc(CN(CC(O)C(F)(F)F)c2cccc(C)c2)c1 (stereo not shown) [Example 11]	< 4.00	
Cc1ccc(CN(CC(O)C(F)(F)F)c2cccc(C)c2)cc1 (stereo not shown) [Example 12]	< 4.00	
Cc1ccc(CN(CC(O)C(F)(F)F)c2ccccc2C)cc1 (stereo not shown) [Example 13]	< 4.00	
Cc1ccc(N(Cc2ccccc2)CC(O)C(F)(F)F)cc1 (stereo not shown) [Example 14]	4.22	
Cc1ccccc1N(Cc1ccccc1)CC(O)C(F)(F)F (stereo not shown) [Example 15]	< 4.00	
OC(CN(Cc1ccccc1)c1cccc(Cl)c1)C(F)(F)F (stereo not shown) [Example 16]	4.22	
Cc1cccc(CN(CC(O)C(F)(F)F)c2ccc(F)c(F)c2)c1 (stereo not shown) [Example 17]	4.35	
OC(CN(Cc1cccc(C(F)(F)F)c1)c1ccc(F)c(F)c1)C(F)(F)F (stereo not shown) [Example 19]	4.82	
COc1ccc(N(Cc2ccc(C(F)(F)F)cc2)CC(O)C(F)(F)F)cc1 (stereo not shown) [Example 23]	4.82	
Cc1ccc(CN(CC(O)C(F)(F)F)c2ccc(F)c(F)c2)cc1 (stereo not shown) [Example 24]	< 4.00	
Cc1cccc(N(Cc2cccc(C(F)(F)F)c2)CC(O)C(F)(F)F)c1 (stereo not shown) [Example 25]		5.00
OC(CN(Cc1cccc(C(F)(F)F)c1)c1cccc(C(F)(F)F)c1)C(F)(F)F (stereo not shown) [Example 47]		5.00
OC(CN(Cc1ccc(OC(F)(F)F)cc1)c1cccc(F)c1)C(F)(F)F (stereo not shown) [Example 57]		4.82
OC(CN(Cc1cccc(Oc2ccccc2)c1)c1cccc(F)c1)C(F)(F)F (stereo not shown) [Example 64]		4.82
OC(CN(Cc1ccc(-c2ccccc2)cc1)c1cccc(F)c1)C(F)(F)F (stereo not shown) [Example 65]		4.70

Now from value to molecule, other results behind:

pIC50 [1]	Compound	pIC50 [2]
5.10	COc1cccc(N(Cc2ccc(C(F)(F)F)cc2)CC(O)C(F)(F)F)c1 (stereo not shown) [Example 26]	
< 4.00	Cc1cccc(CN(CC(O)C(F)(F)F)c2ccccc2C)c1 (stereo not shown) [Example 27]	
4.12	COc1ccc(N(Cc2cccc(C)c2)CC(O)C(F)(F)F)cc1 (stereo not shown) [Example 28]	
< 4.00	Cc1ccc(CN(CC(O)C(F)(F)F)c2cc(F)cc(F)c2)cc1 (stereo not shown) [Example 29]	
4.66	OC(CN(Cc1cccc(C(F)(F)F)c1)c1cccc(Br)c1)C(F)(F)F (stereo not shown) [Example 30]	
< 4.00	Cc1ccc(N(Cc2ccc(C(F)(F)F)cc2)CC(O)C(F)(F)F)cc1 (stereo not shown) [Example 37]	
4.89	OC(CN(Cc1cccc(C(F)(F)F)c1)c1cccc(Cl)c1)C(F)(F)F (stereo not shown) [Example 38]	
4.82	Cc1cccc(N(Cc2ccc(C(F)(F)F)cc2)CC(O)C(F)(F)F)c1 (stereo not shown) [Example 39]	
< 4.00	Cc1ccccc1N(Cc1ccc(C(F)(F)F)cc1)CC(O)C(F)(F)F (stereo not shown) [Example 40]	
4.92	OC(CN(Cc1cccc(OC(F)(F)F)c1)c1cccc(Cl)c1)C(F)(F)F (stereo not shown) [Example 41]	
5.57	OC(CN(Cc1cccc(OC(F)(F)C(F)F)c1)c1cccc(I)c1)C(F)(F)F (stereo not shown) [Example 44]	
< 4.00	OC(CN(Cc1cccc(F)c1)c1cccc(C(F)(F)F)c1)C(F)(F)F (stereo not shown) [Example 46]	
< 4.00	COc1cccc(N(Cc2cccc(C(F)(F)F)c2)CC(O)C(F)(F)F)c1 (stereo not shown) [Example 48]	
4.82	OC(CN(Cc1ccc(C(F)(F)F)cc1)c1cccc(Cl)c1)C(F)(F)F (stereo not shown) [Example 50]	
4.70	COc1ccc(N(Cc2cccc(C(F)(F)F)c2)CC(O)C(F)(F)F)cc1 (stereo not shown) [Example 51]	
5.15	OC(CN(Cc1cccc(C(F)(F)F)c1)c1ccc(F)c(C(F)(F)F)c1)C(F)(F)F (stereo not shown) [Example 52]	
4.82	Cc1ccc(CN(CC(O)C(F)(F)F)c2ccc(F)c(C(F)(F)F)c2)cc1 (stereo not shown) [Example 53]	
4.82	OC(CN(Cc1ccc(OC(F)(F)F)cc1)c1cccc(C(F)(F)F)c1)C(F)(F)F (stereo not shown) [Example 54]	

pIC50 [1]	Compound	pIC50 [2]
4.70	OC(CN(Cc1ccc(OC(F)(F)F)cc1)c1cccc(Cl)c1)C(F)(F)F (stereo not shown) [Example 55]	
4.70	OC(CN(Cc1ccc(OC(F)(F)F)cc1)c1ccc(F)c(F)c1)C(F)(F)F (stereo not shown) [Example 56]	
4.82	Cc1cccc(CN(CC(O)C(F)(F)F)c2ccc(F)c(C(F)(F)F)c2)c1 (stereo not shown) [Example 58]	
5.15	OC(CN(Cc1ccc(OC(F)(F)F)cc1)c1ccccc1)C(F)(F)F (stereo not shown) [Example 59]	
4.64	Cc1cccc(N(Cc2ccc(OC(F)(F)F)cc2)CC(O)C(F)(F)F)c1 (stereo not shown) [Example 61]	
4.74	OC(CN(Cc1ccc(OC(F)(F)F)cc1)c1cccc(Br)c1)C(F)(F)F (stereo not shown) [Example 62]	
4.82	Cc1cccc(CN(CC(O)C(F)(F)F)c2ccc(Cl)c(C(F)(F)F)c2)c1 (stereo not shown) [Example 67]	
4.82	OC(CN(Cc1ccc(OC(F)(F)F)cc1)c1cc(F)cc(F)c1)C(F)(F)F (stereo not shown) [Example 68]	
4.70	OC(CN(Cc1cccc(C(F)(F)F)c1)c1cccc(F)c1F)C(F)(F)F (stereo not shown) [Example 69]	
5.00	Cc1cccc(N(Cc2cccc(OC(F)(F)F)c2)CC(O)C(F)(F)F)c1 (stereo not shown) [Example 72]	
5.52	OC(CN(Cc1cccc(OC(F)(F)F)c1)c1ccccc1)C(F)(F)F (stereo not shown) [Example 73]	
5.00	OC(CN(Cc1cccc(OC(F)(F)F)c1)c1ccc(F)c(F)c1)C(F)(F)F (stereo not shown) [Example 78]	
4.70	OC(CN(Cc1ccc(OC(F)(F)F)cc1)c1cccc(F)c1F)C(F)(F)F (stereo not shown) [Example 80]	
< 4.00	Cc1cccc(CN(CC(O)C(F)(F)F)c2cc(F)cc(F)c2)c1 (stereo not shown) [Example 81]	
5.10	OC(CN(Cc1cccc(Oc2ccccc2)c1)c1cccc(OC(F)(F)F)c1)C(F)(F)F (stereo not shown) [Example 82]	
4.70	OC(CN(Cc1cccc(OCc2ccccc2)c1)c1cccc(OC(F)(F)F)c1)C(F)(F)F (stereo not shown) [Example 83]	
4.10	OC(CN(Cc1cccc(Oc2ccccc2)c1)c1ccccc1-c1ccccc1)C(F)(F)F (stereo not shown) [Example 85]	
4.70	OC(CN(Cc1cccc(Oc2ccccc2)c1)c1ccc(-c2ccccc2)cc1)C(F)(F)F (stereo not shown) [Example 86]	
